According to patent publication US20240270741A1 (Cogent Biosciences, Inc., priority 2023, published 2024):

Assays:
FGFR2 N549H = FGFR2 N549H (Homo sapiens, UniProt P21802, N549H); experiment: FGFR mutant enzyme assay (HTRF KinEASE-TK), FGFR2 N549H; type: biochemical; settings: Table 4
Text: (§1) (Catalogue number 62TK0PEC).

FGFR2 V564F = FGFR2 V564F (Homo sapiens, UniProt P21802, V564F); experiment: FGFR mutant enzyme assay (HTRF KinEASE-TK), FGFR2 V564F; type: biochemical; settings: Table 4
Text: as §1

FGFR2 V564I = FGFR2 V564I (Homo sapiens, UniProt P21802, V564I); experiment: FGFR mutant enzyme assay (HTRF KinEASE-TK), FGFR2 V564I; type: biochemical; settings: Table 4
Sequence of FGFR2 V564I (P21802 399-821 V564I limits assumed): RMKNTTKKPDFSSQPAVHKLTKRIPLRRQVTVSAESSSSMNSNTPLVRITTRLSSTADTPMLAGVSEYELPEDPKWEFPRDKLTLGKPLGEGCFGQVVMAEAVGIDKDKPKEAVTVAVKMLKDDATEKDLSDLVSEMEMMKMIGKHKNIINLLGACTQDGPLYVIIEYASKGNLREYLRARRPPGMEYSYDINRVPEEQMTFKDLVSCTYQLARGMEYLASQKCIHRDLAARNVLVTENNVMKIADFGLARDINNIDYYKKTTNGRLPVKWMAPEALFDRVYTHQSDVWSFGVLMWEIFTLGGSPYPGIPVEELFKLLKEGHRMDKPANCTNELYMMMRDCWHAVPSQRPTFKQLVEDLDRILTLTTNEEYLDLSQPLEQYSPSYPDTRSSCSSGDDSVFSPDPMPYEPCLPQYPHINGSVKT
Text: as §1

FGFR2-WT = FGFR2-WT (Homo sapiens, UniProt P21802); experiment: Phosphorylated FGFR2-WT (pFGFR2-WT) cell assay, KATOIII cells; type: cell-based; settings: Table 4
Sequence of FGFR2-WT (P21802 22-821): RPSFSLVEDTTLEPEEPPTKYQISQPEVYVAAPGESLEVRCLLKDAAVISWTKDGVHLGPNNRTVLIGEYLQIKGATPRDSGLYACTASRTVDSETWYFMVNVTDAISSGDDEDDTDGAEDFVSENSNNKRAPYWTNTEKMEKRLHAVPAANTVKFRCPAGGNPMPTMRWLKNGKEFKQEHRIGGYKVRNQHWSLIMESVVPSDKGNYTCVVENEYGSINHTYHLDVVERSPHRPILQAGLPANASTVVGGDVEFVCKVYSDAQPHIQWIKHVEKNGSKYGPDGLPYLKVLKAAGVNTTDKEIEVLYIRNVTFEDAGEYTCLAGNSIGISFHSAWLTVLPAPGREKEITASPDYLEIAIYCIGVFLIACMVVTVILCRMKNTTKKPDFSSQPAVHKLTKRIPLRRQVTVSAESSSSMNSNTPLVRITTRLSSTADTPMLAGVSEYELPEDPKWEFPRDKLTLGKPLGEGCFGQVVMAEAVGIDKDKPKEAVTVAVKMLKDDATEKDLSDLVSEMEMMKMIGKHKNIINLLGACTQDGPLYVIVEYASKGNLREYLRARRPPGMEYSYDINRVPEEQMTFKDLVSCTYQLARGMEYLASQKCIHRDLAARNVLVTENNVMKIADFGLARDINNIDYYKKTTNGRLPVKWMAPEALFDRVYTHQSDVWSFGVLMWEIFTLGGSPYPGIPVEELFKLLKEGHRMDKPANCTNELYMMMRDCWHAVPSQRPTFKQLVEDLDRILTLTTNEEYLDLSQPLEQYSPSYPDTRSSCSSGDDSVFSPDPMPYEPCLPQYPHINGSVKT
Experimental: Phosphorylated FGFR2-WT (pFGFR2-WT) Cell Assay:
KATOIII cells were grown in the appropriate growth medium, IMDM supplemented with 20% fetal bovine serum. Cells were seeded into a 384-well at 1×10^5 cells/25 μL/well. Cells were treated with compound using three-fold serial dilutions at final concentrations ranging from 10 μM to 0.5 nM. Compound was incubated on cells for 1 hour at 37° C., 5% CO2.
Following the 1-hour incubation with compounds, cell lysates were prepared and phospho FGFR2 was measured using the HTRF Phospho-FGFR2 (TYR653/654) Detection Kits (CisBio, cat #64FGFR2Y6PEG). 8 μL of cell lysis buffer (4×) supplied with 1× Phospho and Total protein blocking reagent (CisBio, cat #64FGFR2Y6PEG, CisBio, cat #64KB1AAC) was then added to the wells. Cells were incubated with lysis buffer for 40 minutes at 4° C. under shaking conditions. Plates were centrifuged at 1500 rpm for 3 min and then 16 μL of cell lysate was transferred from the cell-culture plate to a small volume detection plate with the added premixed antibody solutions (4 μL) (CisBio, cat #64FGFR2Y6PEG). Plates were centrifuged at 1000 rpm for 1 min then incubated at 25° ° C. for 120 min, then overnight at 4° C. Plates were read on the EnVision multimode plate reader via HTRF dual wavelength detection. One hundred percent of control (POC) was determined using DMSO treated samples, and 0 POC was determined using the top concentration of a control compound. A 4-parameter logistic curve was fit to the POC values as a function of compound concentration to determine the IC50 value.

FGFR2 = FGFR2 (Homo sapiens, UniProt P21802); experiment: FGFR wild type enzyme assay (HTRF KinEASE-TK), FGFR2
Sequence of FGFR2 (P21802 399-821 limits assumed): as the sequence (P21802 399-821 V564I limits assumed) above, with I166V counted along it

[1] = Enz FGFR2 (nM), FGFR2 wild type enzyme assay

Sequence of FGFR2 N549H (P21802 399-821 N549H limits assumed): as the sequence (P21802 399-821 V564I limits assumed) above, with N151H, I166V counted along it
Sequence of FGFR2 V564F (P21802 399-821 V564F limits assumed): as the sequence (P21802 399-821 V564I limits assumed) above, with I166F counted along it

## N#Cc1cnn2cc(-c3cnn([C@H]4CCCNC4)c3)cc(Sc3ccccn3)c12 [Example 1, 6-[1-[(3S)-3-Piperidyl]pyrazol-4-yl]-4-(2-pyridylsulfanyl) pyrazolo[1,5-a]pyridine-3-carbonitrile]
FGFR2 N549H
  IC50: 1.5 nM
FGFR2 V564F
  IC50: 3 nM
FGFR2 V564I
  IC50: 6 nM
FGFR2-WT
  IC50: 25 nM
FGFR2; FGFR2 Enz, Table 4
  IC50: 3 nM

## CN[C@H]1CC[C@@H](n2ncc(-c3cc(Sc4ccccc4C#N)c4c(C#N)cnn4c3)c2C)CC1 [Example 117, -[(5-fluoro-2-methyl-4-pyridyl)sulfany1]-6-[5-methyl-1-(4-piperidyl)pyrazol-4-yl]pyrazolo[1,5-a]pyridine-3-carbonitrile]
FGFR2 N549H
  IC50: 0.2 nM
FGFR2 V564F
  IC50: 0.5 nM
FGFR2 V564I
  IC50: 1 nM
FGFR2-WT
  IC50: 28 nM
FGFR2; Enz FGFR2 (nM)
  IC50: 0.3 nM
FGFR2; FGFR2 Enz, Table 4
  IC50: 0.3 nM

## Cc1nc(Sc2cc(-c3cnn(C4CCN(C)CC4)c3C)cn3ncc(C#N)c23)ccc1F [Example 128]
FGFR2 N549H
  IC50: 4 nM
FGFR2 V564F
  IC50: 9 nM
FGFR2 V564I
  IC50: 12 nM
FGFR2-WT
  IC50: 41 nM
FGFR2; Enz FGFR2 (nM)
  IC50: 5 nM
FGFR2; FGFR2 Enz, Table 4
  IC50: 0.12 nM

## Cc1c(-c2cc(Sc3cccc(F)c3C#N)c3c(C#N)cnn3c2)cnn1C1CCNCC1 [Example 130, 4-(2-cyano-3-fluoro-phenyl)sulfanyl-6-[5-methyl-1-(4-piperidyl)pyrazol-4-yl]pyrazolo[1,5-a]pyridine-3-carbonitrile]
FGFR2 N549H
  IC50: 3 nM
FGFR2 V564F
  IC50: 4 nM
FGFR2 V564I
  IC50: 5 nM
FGFR2-WT
  IC50: 117 nM
FGFR2; Enz FGFR2 (nM)
  IC50: 2 nM
FGFR2; FGFR2 Enz, Table 4
  IC50: 1 nM

## N#Cc1ccccc1Sc1cc(-c2cnn(CC[C@H](O)CO)c2)cn2ncc(C#N)c12 [Example 668, (S)-4-((2-cyanophenyl)thio)-6-(1-(3,4-dihydroxybutyl)-1H-pyrazol-4-yl)pyrazolo[1,5-a]pyridine-3-carbonitrile]
FGFR2; [1]
  IC50: 0.4 nM

## CN(CCO)C(=O)Cn1cc(-c2cc(Sc3ccccc3C#N)c3c(C#N)cnn3c2)cn1 [Example 669, 2-(4-(3-cyano-4-((2-cyanophenyl)thio)pyrazolo [1,5-a]pyridin-6-yl)-1H-pyrazol-1-yl)-N-(2-hydroxyethyl)-N-methylacetamide]
FGFR2; [1]
  IC50: 1 nM

## N#Cc1ccccc1Sc1cc(-c2cnn(CC(=O)N3CCNCC3)c2)cn2ncc(C#N)c12 [Example 670, 4-((2-cyanophenyl)thio)-6-(1-(2-oxo-2-(piperazin-1-yl)ethyl)-1H-pyrazol-4-yl)pyrazolo[1,5-a]pryridine-3-carbonitrile]
FGFR2; [1]
  IC50: 1 nM

## CN(C)C(=O)CCn1cc(-c2cc(Sc3ccccc3C#N)c3c(C#N)cnn3c2)cn1 [Example 671, 3-(4-(3-cyano-4-((2-cyanophenyl)thio)pyrazolo [1,5-a]pyridin-6-yl)-1H-pyrazol-1-yl)-N,N-dimethylpropanamide]
FGFR2; [1]
  IC50: 0.5 nM

## CNC(=O)CCn1cc(-c2cc(Sc3ccccc3C#N)c3c(C#N)cnn3c2)cn1 [Example 672, 3-(4-(3-cyano-4-((2-cyanophenyl)thio)pyrazolo [1,5-a]pyridin-6-yl)-1H-pyazol-1-yl)-N-methylpropanamide]
FGFR2; [1]
  IC50: 1 nM

## N#Cc1ccccc1Sc1cc(-c2cnn(CCC(=O)N3CC[C@@H](O)C3)c2)cn2ncc(C#N)c12 [Example 673, (R)-4-((2-cyanophenyl)thio)-6-(1-(3-(3-hydroxypyrrolidin-1-yl)-3-oxopropyl)-1H-pyrazol-4-yl)pyrazolo[1,5-a]pyridine-3-carbonitrile]
FGFR2; [1]
  IC50: 0.2 nM

## N#Cc1ccccc1Sc1cc(-c2cnn(CCC(=O)N3CC[C@H](O)C3)c2)cn2ncc(C#N)c12 [Example 674, (S)-4-((2-cyanophenyl)thio)-6-(1-(3-(3-hydroxypyrrolidin-1-yl)-3-oxopropyl)-1H-pyrazol-4-yl)pyrazolo[1,5-a]pyridine-3-carbonitrile]
FGFR2; [1]
  IC50: 1 nM

## N#Cc1ccccc1Sc1cc(-c2cnn(CCC(=O)N3CCNCC3)c2)cn2ncc(C#N)c12 [Example 675, 4-((2-cyanophenyl)thio)-6-(1-(3-oxo-3-(piperazin-1-yl)propyl)-1H-pyrazol-4-yl)pyrazolo[1,5-a]pyridine-3-carbonitrile]
FGFR2; [1]
  IC50: 0.6 nM

## Cc1c(-c2cc(Sc3ccc(F)cc3C#N)c3c(C#N)cnn3c2)cnn1CC[C@@H](O)CO [Example 676, (R)-4-((2-cyano-4-fluorophenyl)thio)-6-(1-(3,4-dihydroxybutyl)-5-methyl-1H-pyrazol-4-yl)pyrazolo[1,5-a]pyridine-3-carbonitrile]
FGFR2; [1]
  IC50: 3 nM

## C[C@H](O)CN1CC[C@H](n2cc(-c3cc(Sc4ccccc4C#N)c4c(C#N)cnn4c3)cn2)C1 [Example 677, 4-((2-cyanophenyl)thio)-6-(1-((S)-1-((S)-2-hydroxypropyl)pyrrolidin-3-yl)-1H-pyrazol-4-y)pyrazolo[1,5-a]pyridine-3-carbonitrile]
FGFR2; [1]
  IC50: 0.3 nM

## C[C@@H](O)CN1CC[C@H](n2cc(-c3cc(Sc4ccccc4C#N)c4c(C#N)cnn4c3)cn2)C1 [Example 678, 4-((2-cyanophenyl)thio)-6-(1-((S)-1-((R)-2-hydroxypropyl)pyrrolidin-3-yl)-1H-pyrazol-4-yl)pyrazolo[1,5-a]pyridine-3-carbonitrile]
FGFR2; [1]
  IC50: 0.4 nM

## Cc1c(-c2cc(Sc3ccc(F)cc3C#N)c3c(C#N)cnn3c2)cnn1[C@H]1CC[C@H](OP(=O)(O)O)CC1 [Example 679, sodium (1r,4r)-4-(4-(3-cyano-4-((2-cyano-4-fluorophenyl)thio)pyrazolo [1,5-a]pyridin-6-yl)-5-methyl-1H-pyrazol-1-yl)cyclohexyl phosphate]
FGFR2; [1]
  IC50: 1.6 nM

## Cc1c(-c2cc(Sc3ccc(F)cc3C#N)c3c(C#N)cnn3c2)cnn1[C@H]1CC[C@H](OC(=O)[C@@H](N)C(C)C)CC1 [Example 680, (1r,4S)-4-(4-(3-cyano-4-((2-cyano-4-fluorophenyl)thio)pyrazolo [1,5-a]pyridin-6-yl)-5-methyl-1H-pyrazol-1-yl)cyclohexyl L-valinate]
FGFR2; [1]
  IC50: 1 nM
